Test results: patent US12577206B2 (BRISTOL-MYERS SQUIBB COMPANY, priority 2020, dated 2026)

What was measured:
[1] = biological target: T1, human FPR2 (Homo sapiens, UniProt P25090); assay: FPR2 cyclic adenosine monophosphate (cAMP) assay; format: cell-based; conditions: CHO cells overexpressing human FPR2; forskolin 5 μM; inhibition of cAMP production; HTRF; read-out: hFPR2 cAMP2 EC50
T1 sequence (P25090 1-351): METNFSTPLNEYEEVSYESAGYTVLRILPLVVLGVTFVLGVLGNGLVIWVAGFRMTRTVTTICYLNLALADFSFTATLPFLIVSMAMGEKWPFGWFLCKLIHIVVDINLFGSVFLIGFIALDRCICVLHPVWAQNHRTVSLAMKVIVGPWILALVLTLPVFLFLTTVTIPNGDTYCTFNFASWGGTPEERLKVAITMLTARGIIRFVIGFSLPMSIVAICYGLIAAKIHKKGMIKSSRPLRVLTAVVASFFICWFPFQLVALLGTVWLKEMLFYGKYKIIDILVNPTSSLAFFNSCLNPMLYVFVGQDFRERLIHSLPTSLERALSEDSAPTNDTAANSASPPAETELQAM
In short: (§1)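 Inhibition of forskolin-stimulated cAMP (final forskolin 5 μM for FPR2, 10 μM for FPR1; IBMX 200 μM) was measured by HTRF in recombinant CHO cells after 30 min at room temperature.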

[2] = biological target: T2, human FPR1 (Homo sapiens, UniProt P21462); assay: FPR1 cyclic adenosine monophosphate (cAMP) assay; format: cell-based; conditions: CHO cells overexpressing human FPR1; forskolin 10 μM; inhibition of cAMP production; HTRF; read-out: hFPR1 cAMP2 EC50
T2 sequence (P21462 1-350): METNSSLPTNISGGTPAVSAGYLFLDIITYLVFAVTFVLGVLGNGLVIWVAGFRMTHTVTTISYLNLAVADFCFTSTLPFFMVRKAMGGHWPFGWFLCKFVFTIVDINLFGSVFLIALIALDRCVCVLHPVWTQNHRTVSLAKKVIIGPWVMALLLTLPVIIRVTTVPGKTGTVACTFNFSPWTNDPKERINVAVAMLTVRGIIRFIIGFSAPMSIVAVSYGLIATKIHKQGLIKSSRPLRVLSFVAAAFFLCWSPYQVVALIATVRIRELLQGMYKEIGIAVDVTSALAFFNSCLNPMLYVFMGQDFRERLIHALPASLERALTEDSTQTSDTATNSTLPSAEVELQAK
In short: as §1

EC50 [1]	EC50 [2]	SMILES
2 nM	1500 nM	COc1cc(F)c(-c2c(NC(=O)c3ccc(OC(F)F)cc3)c(=O)n(-c3nc(N4CCN(S(C)(=O)=O)CC4)ccc3C(F)(F)F)n2C)c(F)c1 [Example 268, N-[5-(2,6-difluoro-4-methoxyphenyl)-2-[6-(4-methanesulfonylpiperazin-1-yl)-3-(trifluoromethyl)pyridin-2-yl]-1-methyl-3-oxo-2,3-dihydro-1H-pyrazol-4-yl]-4-(difluoromethoxy)benzamide]
3 nM	3300 nM	COc1cc(F)c(-c2c(NC(=O)c3ccc(OC(F)F)cc3)c(=O)n(-c3nc(N4CCN(CC(F)(F)F)CC4)ccc3C(F)(F)F)n2C)c(F)c1 [Example 269, N-[5-(2,6-difluoro-4-methoxyphenyl)-1-methyl-3-oxo-2-{6-[4-(2,2,2-trifluoroethyl)piperazin-1-yl]-3-(trifluoromethyl)pyridin-2-yl}-2,3-dihydro-1H-pyrazol-4-yl]-4-(difluoromethoxy)benzamide]
6 nM	3400 nM	COc1cc(F)c(-c2c(NC(=O)c3ccc(OC(F)F)cc3)c(=O)n(-c3nc(N4CCN(CC(F)F)CC4)ccc3C(F)(F)F)n2C)c(F)c1 [Example 270, N-[5-(2,6-difluoro-4-methoxyphenyl)-2-{6-[4-(2,2-difluoroethyl)piperazin-1-yl]-3-(trifluoromethyl)pyridin-2-yl}-1-methyl-3-oxo-2,3-dihydro-1H-pyrazol-4-yl]-4-(difluoromethoxy)benzamide]
3 nM	> 10000 nM	COc1cc(F)c(-c2c(NC(=O)c3ccc(OC(F)F)cc3)c(=O)n(-c3nc(NCC(C)(C)O)ccc3C(F)(F)F)n2C)c(F)c1 [Example 271, N-[5-(2,6-difluoro-4-methoxyphenyl)-2-{6-[(2-hydroxy-2-methylpropyl)amino]-3-(trifluoromethyl)pyridin-2-yl}-1-methyl-3-oxo-2,3-dihydro-1H-pyrazol-4-yl]-4-(difluoromethoxy)benzamide]
1 nM	> 10000 nM	COc1cc(F)c(-c2c(NC(=O)c3ccc(OC(F)F)cc3)c(=O)n(-c3nc(NC[C@H](C)O)ccc3C(F)(F)F)n2C)c(F)c1 [Example 272, N-[5-(2,6-difluoro-4-methoxyphenyl)-2-(6-{[(2S)-2-hydroxypropyl]amino}-3-(trifluoromethyl)pyridin-2-yl)-1-methyl-3-oxo-2,3-dihydro-1H-pyrazol-4-yl]-4-(difluoromethoxy)benzamide]
3 nM	> 5000 nM	COc1cc(F)c(-c2c(NC(=O)c3ccc(OC(F)F)cc3)c(=O)n(-c3nc(NC[C@@H](C)O)ccc3C(F)(F)F)n2C)c(F)c1 [Example 273]
2 nM	> 5000 nM	COc1cc(F)c(-c2c(NC(=O)c3ccc(OC(F)F)cc3)c(=O)n(-c3nc(NC[C@H](O)C(F)(F)F)ccc3C(F)(F)F)n2C)c(F)c1 [Example 274, N-[5-(2,6-difluoro-4-methoxyphenyl)-1-methyl-3-oxo-2-(6-{[(2S)-3,3,3-trifluoro-2-hydroxypropyl]amino}-3-(trifluoromethyl)pyridin-2-yl)-2,3-dihydro-1H-pyrazol-4-yl]-4-(difluoromethoxy)benzamide]
5 nM	> 10000 nM	COc1cc(F)c(-c2c(NC(=O)c3ccc(OC(F)F)cc3)c(=O)n(-c3nc(C(C)(C)O)ccc3C(F)(F)F)n2C)c(F)c1 [Example 275, N-[5-(2,6-difluoro-4-methoxyphenyl)-2-[6-(2-hydroxypropan-2-yl)-3-(trifluoromethyl)pyridin-2-yl]-1-methyl-3-oxo-2,3-dihydro-1H-pyrazol-4-yl]-4-(difluoromethoxy)benzamide]
4 nM	2890 nM	COc1cc(F)c(-c2c(NC(=O)c3ccc(OC(F)F)cc3)c(=O)n(-c3nc(C(C)(C)O)ccc3Cl)n2C)c(F)c1 [Example 276, N-{2-[3-chloro-6-(2-hydroxypropan-2-yl)pyridin-2-yl]-5-(2,6-difluoro-4-methoxyphenyl)-1-methyl-3-oxo-2,3-dihydro-1H-pyrazol-4-yl}-4-(difluoromethoxy)benzamide]
17 nM	730 nM	Cn1c(-c2ccc(C3CC3)cc2)c(NC(=O)c2ccc(OC(F)F)cc2)c(=O)n1-c1ncccc1C(F)(F)F [Example 277, N-[5-(4-cyclopropylphenyl)-1-methyl-3-oxo-2-[3-(trifluoromethyl)pyridin-2-yl]-2,3-dihydro-1H-pyrazol-4-yl]-4-(difluoromethoxy)benzamide]
2 nM	> 10000 nM	COCCOc1ccc(C(F)(F)F)c(-n2c(=O)c(NC(=O)c3ccc(OC(F)F)cc3)c(-c3c(F)cc(OC)cc3F)n2C)n1 [Example 278, N-[5-(2,6-difluoro-4-methoxyphenyl)-2-[6-(2-methoxyethoxy)-3-(trifluoromethyl)pyridin-2-yl]-1-methyl-3-oxo-2,3-dihydro-1H-pyrazol-4-yl]-4-(difluoromethoxy)benzamide]
2 nM	> 10000 nM	COc1cc(F)c(-c2c(NC(=O)c3ccc(OC(F)F)cc3)c(=O)n(-c3nc(NCC(C)(C)C(N)=O)ccc3C(F)(F)F)n2C)c(F)c1 [Example 279, N-(2-{6-[(2-carbamoyl-2,2-dimethylethyl)amino]-3-(trifluoromethyl)pyridin-2-yl}-5-(2,6-difluoro-4-methoxyphenyl)-1-methyl-3-oxo-2,3-dihydro-1H-pyrazol-4-yl)-4-(difluoromethoxy)benzamide]
2 nM	2700 nM	COc1cc(F)c(-c2c(NC(=O)c3ccc(OC(F)F)cc3)c(=O)n(-c3nc(N4CC[C@H](O)C4)ccc3C(F)(F)F)n2C)c(F)c1 [Example 280, N-[5-(2,6-difluoro-4-methoxyphenyl)-2-{6-[(3S)-3-hydroxypyrrolidin-1-yl]-3-(trifluoromethyl)pyridin-2-yl}-1-methyl-3-oxo-2,3-dihydro-1H-pyrazol-4-yl]-4-(difluoromethoxy)benzamide]
18 nM	500 nM	Cn1c(-c2ccc(OC(F)F)cc2)c(NC(=O)c2ccc(OC(F)F)cc2)c(=O)n1-c1ncccc1C(F)(F)F [Example 281, 4-(difluoromethoxy)-N-{5-[4-(difluoromethoxy)phenyl]-1-methyl-3-oxo-2-[3-(trifluoromethyl)pyridin-2-yl]-2,3-dihydro-1H-pyrazol-4-yl}benzamide]
2 nM	2100 nM	COc1cc(F)c(-c2c(NC(=O)c3ccc(OC(F)F)cc3)c(=O)n(-c3nc(N4CCC(C)(O)C4)ccc3C(F)(F)F)n2C)c(F)c1 (centres unmarked) [Example 282, N-[5-(2,6-difluoro-4-methoxyphenyl)-2-[6-(3-hydroxy-3-methylpyrrolidin-1-yl)-3-(trifluoromethyl)pyridin-2-yl]-1-methyl-3-oxo-2,3-dihydro-1H-pyrazol-4-yl]-4-(difluoromethoxy)benzamide]
1 nM	> 10000 nM	COc1cc(F)c(-c2c(NC(=O)c3ccc(OC(F)F)cc3)c(=O)n(-c3nc(NCC4(O)CC4)ccc3C(F)(F)F)n2C)c(F)c1 [Example 283, N-[5-(2,6-difluoro-4-methoxyphenyl)-2-(6-{[(1-hydroxycyclopropyl)methyl]amino}-3-(trifluoromethyl)pyridin-2-yl)-1-methyl-3-oxo-2,3-dihydro-1H-pyrazol-4-yl]-4-(difluoromethoxy)benzamide]
2 nM	1800 nM	COc1cc(F)c(-c2c(NC(=O)c3ccc(OC(F)F)cc3)c(=O)n(-c3nc(N4CCC(C)(O)C4)ccc3C(F)(F)F)n2C)c(F)c1 (centres unmarked) [Example 284, N-[5-(2,6-difluoro-4-methoxyphenyl)-2-[6-(3-hydroxy-3-methylpyrrolidin-1-yl)-3-(trifluoromethyl)pyridin-2-yl]-1-methyl-3-oxo-2,3-dihydro-1H-pyrazol-4-yl]-4-(difluoromethoxy)benzamide]
2 nM	> 10000 nM	COc1cc(F)c(-c2c(NC(=O)c3ccc(OC(F)F)cc3)c(=O)n(-c3nc(OCCO)ccc3C(F)(F)F)n2C)c(F)c1 [Example 285, N-[5-(2,6-difluoro-4-methoxyphenyl)-2-[6-(2-hydroxyethoxy)-3-(trifluoromethyl)pyridin-2-yl]-1-methyl-3-oxo-2,3-dihydro-1H-pyrazol-4-yl]-4-(difluoromethoxy)benzamide]
3 nM	> 5000 nM	CCOc1ccc(C(F)(F)F)c(-n2c(=O)c(NC(=O)c3ccc(OC(F)F)cc3)c(-c3c(F)cc(OC)cc3F)n2C)n1 [Example 286, N-[5-(2,6-difluoro-4-methoxyphenyl)-2-[6-ethoxy-3-(trifluoromethyl)pyridin-2-yl]-1-methyl-3-oxo-2,3-dihydro-1H-pyrazol-4-yl]-4-(difluoromethoxy)benzamide]
